Source: patent US20250120989A1, “BRIDGED TRICYCLIC CARBAMOYLPYRIDONE COMPOUNDS AND USES THEREOF” (priority 2023, published 2025)

Assay: in vitro
Details: human, uninfected MT-4 cells

`CC[C@@H](OP(=O)(O)O)[C@@H](C)OC(=O)OCOc1c2n(cc(C(=O)NCc3ccc(F)cc3F)c1=O)[C@@H]1CN(C2=O)[C@@H](C)CC[C@]12CC(OC)=NO2` [Compound 78, (((3′S,5S,7′R)-10′-((2,4-difluorobenzyl)carbamoyl)-3-methoxy-3′-methyl-1′,11′-dioxo-1′,4′,5′,11′-tetrahydro-3′H,4H,7′H-spiro[isoxazole-5,6′-[2,7]methanopyrido[1,2-a][1,4]diazonin]-12′-yl)oxy)methyl ((2R,3R)-3-(phosphonooxy)pentan-2-yl) carbonate] and `CC[C@@H](OP(=O)(O)O)[C@H](C)OC(=O)OCOc1c2n(cc(C(=O)NCc3ccc(F)cc3F)c1=O)[C@@H]1CN(C2=O)[C@@H](C)CC[C@]12CC(OC)=NO2` [Compound 75, (((3′S,5S,7′R)-10′-((2,4-difluorobenzyl)carbamoyl)-3-methoxy-3′-methyl-1′,11′-dioxo-1′,4′,5′,11′-tetrahydro-3′H,4H,7′H-spiro[isoxazole-5,6′-[2,7]methanopyrido[1,2-a][1,4]diazonin]-12′-yl)oxy)methyl ((2S,3R)-3-(phosphonooxy)pentan-2-yl) carbonate] are within 1.5-fold of each other in CC50 at 5 days: 28.6 µM for the first, 34.3 µM for the second.

`CC1=NO[C@@]2(CC[C@H](C)N3C[C@H]2n2cc(C(=O)NCc4ccc(F)cc4F)c(=O)c(OCOC(=O)OC[C@H](OP(=O)(O)O)C(C)C)c2C3=O)C1` [Compound 80, (((3′S,5S,7′R)-10′-((2,4-difluorobenzyl)carbamoyl)-3,3′-dimethyl-1′,11′-dioxo-1′,4′,5′,11′-tetrahydro-3′H,4H,7′H-spiro[isoxazole-5,6′-[2,7]methanopyrido[1,2-a][1,4]diazonin]-12′-yl)oxy)methyl ((R)-3-methyl-2-(phosphonooxy)butyl) carbonate] and `COC1=NO[C@@]2(CC[C@H](C)N3C[C@H]2n2cc(C(=O)NCc4ccc(F)cc4F)c(=O)c(OCOC(=O)OC[C@@H](OP(=O)(O)O)C(C)C)c2C3=O)C1` [Compound 82, (((3′S,5S,7′R)-10′-((2,4-difluorobenzyl)carbamoyl)-3-methoxy-3′-methyl-1′,11′-dioxo-1′,4′,5′,11′-tetrahydro-3′H,4H,7′H-spiro[isoxazole-5,6′-[2,7]methanopyrido[1,2-a][1,4]diazonin]-12′-yl)oxy)methyl ((S)-3-methyl-2-(phosphonooxy)butyl) carbonate] are within 1.5-fold of each other in CC50 at 5 days: 27.2 µM for the first, 39.7 µM for the second.

`CC[C@H](OP(=O)(O)O)[C@@H](C)OC(=O)OCOc1c2n(cc(C(=O)NCc3ccc(F)cc3F)c1=O)[C@@H]1CN(C2=O)[C@@H](C)CC[C@]12CC(C)=NO2` [Compound 77, (((3′S,5S,7′R)-10′-((2,4-difluorobenzyl)carbamoyl)-3,3′-dimethyl-1′,11′-dioxo-1′,4′,5′,11′-tetrahydro-3′H,4H,7′H-spiro[isoxazole-5,6′-[2,7]methanopyrido[1,2-a][1,4]diazonin]-12′-yl)oxy)methyl ((2R,3S)-3-(phosphonooxy)pentan-2-yl) carbonate] and `CC[C@@H](OP(=O)(O)O)[C@@H](C)OC(=O)OCOc1c2n(cc(C(=O)NCc3ccc(F)cc3F)c1=O)[C@@H]1CN(C2=O)[C@@H](C)CC[C@]12CC(C)=NO2` [Compound 76, (((3′S,5S,7′R)-10′-((2,4-difluorobenzyl)carbamoyl)-3,3′-dimethyl-1′,11′-dioxo-1′,4′,5′,11′-tetrahydro-3′H,4H,7′H-spiro[isoxazole-5,6′-[2,7]methanopyrido[1,2-a][1,4]diazonin]-12′-yl)oxy)methyl ((2R,3R)-3-(phosphonooxy)pentan-2-yl) carbonate] are within 1.5-fold of each other in CC50 at 5 days: 37 µM for the first, 24.8 µM for the second.

`CC[C@H](OP(=O)(O)O)[C@@H](C)OC(=O)OCOc1c2n(cc(C(=O)NCc3ccc(F)cc3F)c1=O)[C@@H]1CN(C2=O)[C@@H](C)CC[C@]12CC(OC)=NO2` [Compound 79, (((3′S,5S,7′R)-10′-((2,4-difluorobenzyl)carbamoyl)-3-methoxy-3′-methyl-1′,11′-dioxo-1′,4′,5′,11′-tetrahydro-3′H,4H,7′H-spiro[isoxazole-5,6′-[2,7]methanopyrido[1,2-a][1,4]diazonin]-12′-yl)oxy)methyl ((2R,3S)-3-(phosphonooxy)pentan-2-yl) carbonate] and `CC[C@@H](OP(=O)(O)O)[C@H](C)OC(=O)OCOc1c2n(cc(C(=O)NCc3ccc(F)cc3F)c1=O)[C@@H]1CN(C2=O)[C@@H](C)CC[C@]12CC(C)=NO2` [Compound 73, (((3′S,5S,7′R)-10′-((2,4-difluorobenzyl)carbamoyl)-3,3′-dimethyl-1′,11′-dioxo-1′,4′,5′,11′-tetrahydro-3′H,4H,7′H-spiro[isoxazole-5,6′-[2,7]methanopyrido[1,2-a][1,4]diazonin]-12′-yl)oxy)methyl ((2S,3R)-3-(phosphonooxy)pentan-2-yl) carbonate] are within 1.5-fold of each other in CC50 at 5 days: 45.7 µM for the first, 30.8 µM for the second.

Going from `CC1=NO[C@@]2(CC[C@H](C)N3C[C@H]2n2cc(C(=O)NCc4ccc(F)cc4F)c(=O)c(OCOC(=O)N(C)CC(=O)O)c2C3=O)C1` [Compound 45, N-(((((3′S,5S,7′R)-10′-((2,4-difluorobenzyl)carbamoyl)-3,3′-dimethyl-1′,11′-dioxo-1′,4′,5′,11′-tetrahydro-3′H,4H,7′H-spiro[isoxazole-5,6′-[2,7]methanopyrido[1,2-a][1,4]diazonin]-12′-yl)oxy)methoxy)carbonyl)-N-methylglycine] to `CC1=NO[C@@]2(CC[C@H](C)N3C[C@H]2n2cc(C(=O)NCc4ccc(F)cc4F)c(=O)c(OCOC(=O)OCCN(C)C)c2C3=O)C1` [Compound 14, (((3′S,5S,7′R)-10′-((2,4-difluorobenzyl)carbamoyl)-3,3′-dimethyl-1′,11′-dioxo-1′,4′,5′,11′-tetrahydro-3′H,4H,7′H-spiro[isoxazole-5,6′-[2,7]methanopyrido[1,2-a][1,4]diazonin]-12′-yl)oxy)methyl (2-(dimethylamino)ethyl) carbonate], the CC50 at 5 days falls from 50 µM to 17.1 µM (2.9-fold).

`COC1=NO[C@@]2(CC[C@H](C)N3C[C@H]2n2cc(C(=O)NCc4ccc(F)cc4F)c(=O)c(OCOC(=O)OC[C@H](OP(=O)(O)O)C(C)C)c2C3=O)C1` [Compound 81, (((3′S,5S,7′R)-10′-((2,4-difluorobenzyl)carbamoyl)-3-methoxy-3′-methyl-1′,11′-dioxo-1′,4′,5′,11′-tetrahydro-3′H,4H,7′H-spiro[isoxazole-5,6′-[2,7]methanopyrido[1,2-a][1,4]diazonin]-12′-yl)oxy)methyl ((R)-3-methyl-2-(phosphonooxy)butyl) carbonate] and `CC[C@H](OP(=O)(O)O)[C@H](C)OC(=O)OCOc1c2n(cc(C(=O)NCc3ccc(F)cc3F)c1=O)[C@@H]1CN(C2=O)[C@@H](C)CC[C@]12CC(C)=NO2` [Compound 72, (((3′S,5S,7′R)-10′-((2,4-difluorobenzyl)carbamoyl)-3,3′-dimethyl-1′,11′-dioxo-1′,4′,5′,11′-tetrahydro-3′H,4H,7′H-spiro[isoxazole-5,6′-[2,7]methanopyrido[1,2-a][1,4]diazonin]-12′-yl)oxy)methyl ((2S,3S)-3-(phosphonooxy)pentan-2-yl) carbonate] are within 1.5-fold of each other in CC50 at 5 days: 36.9 µM for the first, 27.2 µM for the second.
